Patent US12077503B2, “Substituted cyclic amides and their use as herbicides” (FMC CORPORATION, priority 2015, dated 2024)

Columns and labels:
Assay type in all cases: in vivo
rice (Oryra sativa) = test: Test B flooded paddy test; conditions: Flood, 250 g ai/ha; 0 to 100 scale where 0 is no effect and 100 is complete control; 13 to 15 d
Summary of the method: (§1)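 Flooding to 3 cm over soil accompanied treatment, which consisted of adding compound to the standing water around 2-leaf plants; depth was then maintained. Visual assessment versus controls followed at 13 to 15 d (scale 0–100, 0 meaning no effect).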

[1] = tested on: barnyardgrass (Echinochloa crus-galli); test: Test B flooded paddy test; conditions: Flood, 250 g ai/ha; 0 to 100 scale where 0 is no effect and 100 is complete control; 13 to 15 d
Summary of the method: as §1

[2] = tested on: ducksalad (Heteranthera limosa); test: Test B flooded paddy test; conditions: Flood, 250 g ai/ha; 0 to 100 scale where 0 is no effect and 100 is complete control; 13 to 15 d
Summary of the method: as §1

[3] = tested on: sedge, umbrella (small-flower umbrella sedge, Cyperus difformis); test: Test B flooded paddy test; conditions: Flood, 250 g ai/ha; 0 to 100 scale where 0 is no effect and 100 is complete control; 13 to 15 d
Summary of the method: as §1

[4] = tested on: barnyardgrass (Echinochloa crus-galli); test: Test A postemergence; conditions: postemergence; for Barnyardgrass plant response rating: 125 g ai/ha, visual injury rating on 0 to 100 scale (0 no effect, 100 complete control), approx. 10 d; for Plant response rating, Barnyardgrass: 500 g ai/ha, 0 to 100 scale, 0 no effect, 100 complete control
Summary of the method: (§2)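 Preemergence directed soil spray on seeded pots, or postemergence application to plants 2–10 cm, one- to two-leaf. Solvent mixture non-phytotoxic, with surfactant. Scored ~10 d later, visually, 0–100 vs untreated.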

Kochia (Kochia scoparia) [5] = test: Test A postemergence; conditions: postemergence; for Kochia plant response rating: 125 g ai/ha, visual injury rating on 0 to 100 scale (0 no effect, 100 complete control), approx. 10 d; for Plant response rating, Kochia: 500 g ai/ha, 0 to 100 scale, 0 no effect, 100 complete control
Summary of the method: as §2

[6] = tested on: pigweed (Amaranthus retroflexus); test: Test A postemergence; conditions: postemergence; for Pigweed plant response rating: 125 g ai/ha, visual injury rating on 0 to 100 scale (0 no effect, 100 complete control), approx. 10 d; for Plant response rating, Pigweed: 500 g ai/ha, 0 to 100 scale, 0 no effect, 100 complete control
Summary of the method: as §2

[7] = tested on: ryegrass, Italian (Italian ryegrass, Lolium multiflorum); test: Test A postemergence; conditions: postemergence; for Ryegrass, Italian plant response rating: 125 g ai/ha, visual injury rating on 0 to 100 scale (0 no effect, 100 complete control), approx. 10 d; for Plant response rating, Ryegrass, Italian: 500 g ai/ha, 0 to 100 scale, 0 no effect, 100 complete control
Summary of the method: as §2

[8] = tested on: ragweed (common ragweed, Ambrosia elatior); test: Test A postemergence; conditions: postemergence; for Ragweed plant response rating: 125 g ai/ha, visual injury rating on 0 to 100 scale (0 no effect, 100 complete control), approx. 10 d; for Plant response rating, Ragweed: 500 g ai/ha, 0 to 100 scale, 0 no effect, 100 complete control
Summary of the method: as §2

[9] = tested on: giant foxtail (Setaria faberii); test: Test A postemergence; conditions: postemergence; for Foxtail, Giant plant response rating: 125 g ai/ha, visual injury rating on 0 to 100 scale (0 no effect, 100 complete control), approx. 10 d; for Plant response rating, Foxtail, Giant: 500 g ai/ha, 0 to 100 scale, 0 no effect, 100 complete control
Summary of the method: as §2

[10] = tested on: wheat (Triticum aestivum); test: Test A postemergence; conditions: postemergence; for Wheat plant response rating: 125 g ai/ha, visual injury rating on 0 to 100 scale (0 no effect, 100 complete control), approx. 10 d; for Plant response rating, Wheat: 500 g ai/ha, 0 to 100 scale, 0 no effect, 100 complete control
Summary of the method: as §2

[11] = tested on: blackgrass (Alopecurus myosuroides); test: Test A postemergence; conditions: postemergence; for Blackgrass plant response rating: 125 g ai/ha, visual injury rating on 0 to 100 scale (0 no effect, 100 complete control), approx. 10 d; for Plant response rating, Blackgrass: 500 g ai/ha, 0 to 100 scale, 0 no effect, 100 complete control
Summary of the method: as §2

[12] = tested on: Galium (catchweed bedstraw, Galium aparine); test: Test A postemergence; conditions: postemergence; for Galium plant response rating: 125 g ai/ha, visual injury rating on 0 to 100 scale (0 no effect, 100 complete control), approx. 10 d; for Plant response rating, Galium: 500 g ai/ha, 0 to 100 scale, 0 no effect, 100 complete control
Summary of the method: as §2

corn (Zea mays) = test: Test A postemergence; conditions: postemergence; for Corn plant response rating: 125 g ai/ha, visual injury rating on 0 to 100 scale (0 no effect, 100 complete control), approx. 10 d; for Plant response rating, Corn: 500 g ai/ha, 0 to 100 scale, 0 no effect, 100 complete control
Summary of the method: as §2

[13] = tested on: barnyardgrass (Echinochloa crus-galli); test: Test A preemergence; conditions: for Plant response rating, Barnyardgrass: 125 g ai/ha, preemergence, 0 to 100 scale (0 no effect, 100 complete control); for Barnyardgrass plant response rating (0 to 100 scale, 0 is no effect, 100 is complete control): Preemergence, 500 g ai/ha, visual injury approx. 10 d
Summary of the method: as §2

Kochia (Kochia scoparia) [14] = test: Test A preemergence; conditions: for Plant response rating, Kochia: 125 g ai/ha, preemergence, 0 to 100 scale (0 no effect, 100 complete control); for Kochia plant response rating (0 to 100 scale, 0 is no effect, 100 is complete control): Preemergence, 500 g ai/ha, visual injury approx. 10 d
Summary of the method: as §2

[15] = tested on: pigweed (Amaranthus retroflexus); test: Test A preemergence; conditions: for Plant response rating, Pigweed: 125 g ai/ha, preemergence, 0 to 100 scale (0 no effect, 100 complete control); for Pigweed plant response rating (0 to 100 scale, 0 is no effect, 100 is complete control): Preemergence, 500 g ai/ha, visual injury approx. 10 d
[16] = tested on: ryegrass, Italian (Italian ryegrass, Lolium multiflorum); test: Test A preemergence; conditions: for Plant response rating, Ryegrass, Italian: 125 g ai/ha, preemergence, 0 to 100 scale (0 no effect, 100 complete control); for Ryegrass, Italian plant response rating (0 to 100 scale, 0 is no effect, 100 is complete control): Preemergence, 500 g ai/ha, visual injury approx. 10 d
Summary of the method: as §2

[17] = tested on: ragweed (common ragweed, Ambrosia elatior); test: Test A preemergence; conditions: for Plant response rating, Ragweed: 125 g ai/ha, preemergence, 0 to 100 scale (0 no effect, 100 complete control); for Ragweed plant response rating (0 to 100 scale, 0 is no effect, 100 is complete control): Preemergence, 500 g ai/ha, visual injury approx. 10 d
Summary of the method: as §2

[18] = tested on: giant foxtail (Setaria faberii); test: Test A preemergence; conditions: for Plant response rating, Foxtail, Giant: 125 g ai/ha, preemergence, 0 to 100 scale (0 no effect, 100 complete control); for Foxtail, Giant plant response rating (0 to 100 scale, 0 is no effect, 100 is complete control): Preemergence, 500 g ai/ha, visual injury approx. 10 d
Summary of the method: as §2

| SMILES | Plant response rating, Rice (rice (Oryra sativa)) | Plant response rating, Barnyardgrass [1] | Plant response rating, Ducksalad [2] | Plant response rating, Sedge, Umbrella [3] | Barnyardgrass plant response rating [4] | Plant response rating, Barnyardgrass [4] | Kochia plant response rating (Kochia (Kochia scoparia) [5]) | Plant response rating, Kochia (Kochia (Kochia scoparia) [5]) | Pigweed plant response rating [6] | Plant response rating, Pigweed [6] | Ryegrass, Italian plant response rating [7] | Plant response rating, Ryegrass, Italian [7] | Ragweed plant response rating [8] | Plant response rating, Ragweed [8] | Foxtail, Giant plant response rating [9] | Plant response rating, Foxtail, Giant [9] | Wheat plant response rating [10] | Plant response rating, Wheat [10] | Blackgrass plant response rating [11] | Plant response rating, Blackgrass [11] | further results |
| --- | --- | --- | --- | --- | --- | --- | --- | --- | --- | --- | --- | --- | --- | --- | --- | --- | --- | --- | --- | --- | --- |
| O=C1NCC(c2ccc(Br)cc2)C1C(=O)Nc1cccc(F)c1F (stereo not drawn) [Compound 446] | 0 | 75 | 100 | 0 | 80 | 90 | 60 | 60 | 50 | 60 | 20 | 30 | 0 | 20 | 90 | 90 | 0 | 50 | 50 | 50 | Galium plant response rating [12]: 50; Plant response rating, Galium [12]: 50; Corn plant response rating (corn (Zea mays)): 20; Plant response rating, Corn (corn (Zea mays)): 30; Plant response rating, Barnyardgrass [13]: 90; Barnyardgrass plant response rating (0 to 100 scale, 0 is no effect, 100 is complete control) [13]: 90; Plant response rating, Kochia (Kochia (Kochia scoparia) [14]): 50; Kochia plant response rating (0 to 100 scale, 0 is no effect, 100 is complete control) (Kochia (Kochia scoparia) [14]): 50; Plant response rating, Pigweed [15]: 40; Pigweed plant response rating (0 to 100 scale, 0 is no effect, 100 is complete control) [15]: 60; Plant response rating, Ryegrass, Italian [16]: 20; Ryegrass, Italian plant response rating (0 to 100 scale, 0 is no effect, 100 is complete control) [16]: 60; Plant response rating, Ragweed [17]: 50; Ragweed plant response rating (0 to 100 scale, 0 is no effect, 100 is complete control) [17]: 50; Plant response rating, Foxtail, Giant [18]: 90; Foxtail, Giant plant response rating (0 to 100 scale, 0 is no effect, 100 is complete control) [18]: 90 |
| Cc1ccc(C2CN(C)C(=O)C2C(=O)Nc2ccccc2F)cc1F (stereo not drawn) [Compound 465] | 0 | 80 | 100 | 0 | 90 | 90 | 50 | 60 | 0 | 20 | 60 | 70 | 0 | 30 | 90 | 90 | 60 | 70 | 40 | 70 | Galium plant response rating [12]: 60; Plant response rating, Galium [12]: 60; Corn plant response rating (corn (Zea mays)): 80; Plant response rating, Corn (corn (Zea mays)): 90; Plant response rating, Barnyardgrass [13]: 90; Barnyardgrass plant response rating (0 to 100 scale, 0 is no effect, 100 is complete control) [13]: 100; Plant response rating, Kochia (Kochia (Kochia scoparia) [14]): 80; Kochia plant response rating (0 to 100 scale, 0 is no effect, 100 is complete control) (Kochia (Kochia scoparia) [14]): 80; Plant response rating, Pigweed [15]: 50; Pigweed plant response rating (0 to 100 scale, 0 is no effect, 100 is complete control) [15]: 70; Plant response rating, Ryegrass, Italian [16]: 70; Ryegrass, Italian plant response rating (0 to 100 scale, 0 is no effect, 100 is complete control) [16]: 70; Plant response rating, Ragweed [17]: 40; Ragweed plant response rating (0 to 100 scale, 0 is no effect, 100 is complete control) [17]: 70; Plant response rating, Foxtail, Giant [18]: 100; Foxtail, Giant plant response rating (0 to 100 scale, 0 is no effect, 100 is complete control) [18]: 100 |
